# Test results as given in US20220249576A1 (priority 2021, published 2022).
# Key:
# [1] = system: Aspergillus endosomal development; details: previously observed; cited from earlier work
# A. flavus = format: cell-based, Aspergillus flavus
Compound,minimal inhibitory concentration (MIC) for disruption of Aspergillus endosomal development [1] [µmol/L],aflatoxin levels compared to the filipin treated samples (A. flavus),aflatoxin production compared to untreated control (A. flavus + the exemplary composition) (A. flavus)
CCCCC[C@@H](O)[C@H]1C(=O)O[C@H](C)[C@@H](O)/C=C/C=C/C=C/C=C/C=C(\C)[C@@H](O)C[C@H](O)C[C@H](O)C[C@H](O)C[C@H](O)C[C@H](O)C[C@@H]1O [filipin],3,–,–
C[C@@H]1C/C=C/C=C/C=C/C=C/[C@H](O[C@@H]2O[C@H](C)[C@@H](O)[C@H](N)[C@@H]2O)C[C@@H]2O[C@](O)(C[C@@H](O)C[C@H]3O[C@@H]3/C=C/C(=O)O1)C[C@H](O)[C@H]2C(=O)O [natamycin],6,significantly greater increase,increase aflatoxin production
